Results on 15 compounds are retold here after PubChem BioAssay AID280 (DTP/NCI, 2004).

Values joined by “and” are separate entries in the source; they are usually repeats but may differ in a detail not shown here. Identical values can stand only once. Inconclusive results and toxic doses are left out.

The test concerns nude mice, LOX melanoma ip, survival T/C. Kind of test: NCI In Vivo Anticancer Drug Screen. Data for tumor model Human Amelanotic Melanoma (LOX) (intraperitoneal) in NU/NU BALB/C (nude) mice. The note with it: endpoint: median survival time, higher = longer survival. As for the experimental part:
The antitumor activity of compounds was measured in mice bearing transplantable tumors. Survival or tumor size were measured and the results are expressed as the measurement made in the treated group (T) divided by the measurement made in the vehicle treated control group (C). The tumor model used in this assay is Human Amelanotic Melanoma (LOX) (intraperitoneal) in NU/NU BALB/C (nude) mice

Setting [1] is: dose: 75.0 mg/kg/injection, schedule: Q04DX003 (ip), vehicle: saline with Tween-80.
[2] abbreviates: dose: 150.0 mg/kg/injection, schedule: Q04DX003 (ip), vehicle: saline with Tween-80.
[3] abbreviates: dose: 300.0 mg/kg/injection, schedule: Q04DX003 (ip), vehicle: saline with Tween-80.
Where [4] appears, read: dose: 50.0 mg/kg/injection, schedule: Q04DX003 (ip), vehicle: saline with Tween-80.
The mark [5] stands for this setting: dose: 100.0 mg/kg/injection, schedule: Q04DX003 (ip), vehicle: saline with Tween-80.
The mark [6] stands for this setting: dose: 6.25 mg/kg/injection, schedule: Q04DX003 (ip), vehicle: saline with Tween-80.
The mark [7] stands for this setting: dose: 12.5 mg/kg/injection, schedule: Q04DX003 (ip), vehicle: saline with Tween-80.

Regarding `O=C(CCCN1CCC(C(O)c2ccc(F)cc2)CC1)c1ccc(F)cc1` (stereo not drawn), the T/C reads like this: (dose: 6.25 mg/kg/injection, schedule: Q01DX009 (ip), vehicle: saline with Tween-80) 95 % of control; (dose: 12.5 mg/kg/injection, schedule: Q01DX009 (ip), vehicle: saline with Tween-80) 107 % of control; (dose: 12.5 mg/kg/injection, schedule: Q01DX009 (oral), vehicle: saline with Tween-80) 109 % of control; (dose: 25.0 mg/kg/injection, schedule: Q01DX009 (ip), vehicle: saline with Tween-80) 101 % of control; (dose: 25.0 mg/kg/injection, schedule: Q01DX009 (oral), vehicle: saline with Tween-80) 99 % of control; (dose: 50.0 mg/kg/injection, schedule: Q01DX009 (ip), vehicle: saline with Tween-80) 115 % of control. In addition, the T/C is, setting by setting: (dose: 50.0 mg/kg/injection, schedule: Q01DX009 (oral), vehicle: saline with Tween-80) 107 % of control; (dose: 100.0 mg/kg/injection, schedule: Q01DX009 (oral), vehicle: saline with Tween-80) 107 % of control.
Turning to `NC(=S=O)C(N)=S=O`, the T/C (dose: 62.5 mg/kg/injection, schedule: Q04DX003 (ip), vehicle: saline with Tween-80) was 109 % of control; the T/C (dose: 125.0 mg/kg/injection, schedule: Q04DX003 (ip), vehicle: saline with Tween-80) is 105 % of control; the T/C (dose: 250.0 mg/kg/injection, schedule: Q04DX003 (ip), vehicle: saline with Tween-80) was 105 % of control; the T/C (dose: 500.0 mg/kg/injection, schedule: Q04DX003 (ip), vehicle: saline with Tween-80) was 105 % of control.
As to `C=Cc1cc(OC)c2c(c1)c(=O)oc1c2cc(OC)c2c(O)ccc(C3OC(C)C(O)C(C)(O)C3O)c21` (stereo not drawn), where the note is “dose: 600.0 mg/kg/injection, schedule: Q04DX003 (ip), vehicle: DMSO”, the T/C was 86 % of control.
On to `CCOC(=O)C1=C(C)O/C(=C/c2cccc(Cl)c2)C1=O`, for which the T/C was 200 % of control (dose: 37.5 mg/kg/injection, schedule: Q04DX003 (ip), vehicle: saline with Tween-80); 194 % of control under setting [1]; 152 % of control under setting [2]; 184 % of control under setting [3].
As to `CC1OC(O[C@H]2/C=C/C=C/C=C/C=C/C=C/C=C/C=C/[C@H](C)[C@@H](O)[C@@H](C)[C@H](C)OC(=O)C[C@H](O)C[C@H](O)CC[C@@H](O)[C@H](O)C[C@H](O)C[C@]3(O)C[C@H](O)[C@@H](C(=O)O)[C@H](C2)O3)C(O)C(N)C1O` (stereo partly drawn), the T/C is 110 % of control (dose: 12.5 mg/kg/injection, schedule: Q04DX003 (ip), vehicle: saline + Tween-80 + alcohol) and 107 % of control (dose: 25.0 mg/kg/injection, schedule: Q04DX003 (ip), vehicle: saline + Tween-80 + alcohol).
With `NC(=O)C1C=CN(Cc2ccccc2)C=C1`, the T/C was 112 % of control under setting [4]; 117 % of control under setting [5]; 123 % of control (dose: 200.0 mg/kg/injection, schedule: Q04DX003 (ip), vehicle: saline with Tween-80).
Regarding `CC1=C[P+](c2ccccc2)(c2ccccc2)C=C(c2ccccc2)O1`, the T/C by setting is: (dose: 0.38 mg/kg/injection, schedule: Q04DX003 (ip), vehicle: saline) 97 % of control; (dose: 3.0 mg/kg/injection, schedule: Q04DX003 (ip), vehicle: saline) 88 % of control.
Consider `C/C(=N\NC(=S)N1CC2CCC(CC2)C1)c1cccc(C)n1`, for which the T/C is 105 % of control under setting [6]; 109 % of control under setting [7]; 103 % of control (dose: 25.0 mg/kg/injection, schedule: Q04DX003 (ip), vehicle: saline with Tween-80); 120 % of control under setting [4]; 109 % of control under setting [5].
With `S=C(N/N=C1/CCCC/C1=N/NC(=S)N1CCOCC1)N1CCOCC1`, the T/C is 116 % of control (dose: 3.13 mg/kg/injection, schedule: Q04DX003 (ip), vehicle: saline with Tween-80); 117 % of control under setting [6]; 110 % of control under setting [7].
With `O=C1c2ccccc2C(Cl)(c2ccc(Cl)cc2)c2ccc(Cl)cc21` (stereo not drawn), the T/C under setting [1] was 93 % of control; the T/C under setting [2] was 116 % of control; the T/C under setting [3] is 92 % of control; the T/C (dose: 600.0 mg/kg/injection, schedule: Q04DX003 (ip), vehicle: saline with Tween-80) is 87 % of control; the T/C (dose: 1200.0 mg/kg/injection, schedule: Q04DX003 (ip), vehicle: saline with Tween-80) was 93 % of control.
`COc1ccc(/C=C/C(=O)c2ccccc(=O)c2O)c(OC)c1OC`: the T/C is 100 % of control (dose: 6.85 mg/kg/injection, schedule: Q04DX003 (ip), vehicle: Klucel (hydroxypropylcellulose) (HPC)); 100 % of control (dose: 13.7 mg/kg/injection, schedule: Q04DX003 (ip), vehicle: Klucel (hydroxypropylcellulose) (HPC)); 110 % of control (dose: 27.5 mg/kg/injection, schedule: Q04DX003 (ip), vehicle: Klucel (hydroxypropylcellulose) (HPC)); 104 % of control (dose: 55.0 mg/kg/injection, schedule: Q04DX003 (ip), vehicle: Klucel (hydroxypropylcellulose) (HPC)); 110 % of control (dose: 110.0 mg/kg/injection, schedule: Q04DX003 (ip), vehicle: Klucel (hydroxypropylcellulose) (HPC)).
For `CC(=O)/C(=C\c1ccc(Cl)c(Cl)c1)C(=O)CCN(C)C`, the T/C is, setting by setting: (dose: 6.25 mg/kg/injection, schedule: Q04DX003 (ip), vehicle: suspension in saline) 96 % of control; (dose: 12.5 mg/kg/injection, schedule: Q04DX003 (ip), vehicle: suspension in saline) 102 % of control; (dose: 25.0 mg/kg/injection, schedule: Q04DX003 (ip), vehicle: suspension in saline) 96 % of control; (dose: 50.0 mg/kg/injection, schedule: Q04DX003 (ip), vehicle: suspension in saline) 86 % of control; (dose: 100.0 mg/kg/injection, schedule: Q04DX003 (ip), vehicle: suspension in saline) 122 % of control.
As to `Nc1ccc(S(=O)(=O)Nc2cnc3c(Cl)cccc3n2)cc1`, the T/C reads like this: (dose: 89.1 mg/kg/injection, schedule: Q06HX002 (ip), vehicle: other) 103 % of control; (dose: 133.5 mg/kg/injection, schedule: Q01DX001 (ip), vehicle: other) 88 % of control; (dose: 133.5 mg/kg/injection, schedule: Q01DX005 (ip), vehicle: other) 109 % of control; (dose: 133.5 mg/kg/injection, schedule: Q06HX002 (ip), vehicle: other) 103 % of control; (dose: 200.2 mg/kg/injection, schedule: Q01DX001 (ip), vehicle: other) 98 % of control; (dose: 200.2 mg/kg/injection, schedule: Q01DX005 (ip), vehicle: other) 114 % of control. In addition, the T/C was 114 % of control (dose: 200.2 mg/kg/injection, schedule: Q06HX002 (ip), vehicle: other); 104 % of control (dose: 300.2 mg/kg/injection, schedule: Q01DX001 (ip), vehicle: other); 116 % of control (dose: 300.2 mg/kg/injection, schedule: Q01DX005 (ip), vehicle: other); 111 % of control (dose: 300.2 mg/kg/injection, schedule: Q06HX002 (ip), vehicle: other); 110 % of control (dose: 450.0 mg/kg/injection, schedule: Q01DX001 (ip), vehicle: other); 119 % of control (dose: 674.7 mg/kg/injection, schedule: Q01DX001 (ip), vehicle: other).
For the compound `CC[C@@]1(O)C[C@H](OC2CC(N(C)C)C(OC3CC4OC5CC(=O)C(C)OC5OC4C(C)O3)C(C)O2)c2c(O)c3c(c(O)c2[C@H]1OC1CC(N(C)C)C(O)C(C)O1)C(=O)c1cccc(O)c1C3=O` (stereo partly drawn), the T/C by setting is: (dose: 63.0 micrograms/kg/injection, schedule: Q04DX003 (ip), vehicle: saline) 115 % of control; (dose: 125.0 micrograms/kg/injection, schedule: Q04DX003 (ip), vehicle: saline) 111 % of control; (dose: 250.0 micrograms/kg/injection, schedule: Q04DX003 (ip), vehicle: saline) 108 % of control and 94 % of control.
On to `COc1cc2c(c(OC)c1OC)-c1ccc(OC)c(=O)cc1[C@@H](N)CC2`, for which the T/C (dose: 3.75 mg/kg/injection, schedule: Q04DX003 (ip), vehicle: Klucel (hydroxypropylcellulose) (HPC)) is 102 % of control; the T/C (dose: 7.5 mg/kg/injection, schedule: Q04DX003 (ip), vehicle: Klucel (hydroxypropylcellulose) (HPC)) is 104 % of control; the T/C (dose: 15.0 mg/kg/injection, schedule: Q04DX003 (ip), vehicle: Klucel (hydroxypropylcellulose) (HPC)) is 108 % of control and 113 % of control and 116 % of control; the T/C (dose: 30.0 mg/kg/injection, schedule: Q04DX003 (ip), vehicle: Klucel (hydroxypropylcellulose) (HPC)) is 113 % of control and 114 % of control and 115 % of control; the T/C (dose: 60.0 mg/kg/injection, schedule: Q04DX003 (ip), vehicle: Klucel (hydroxypropylcellulose) (HPC)) was 114 % of control; the T/C (dose: 120.0 mg/kg/injection, schedule: Q04DX003 (ip), vehicle: Klucel (hydroxypropylcellulose) (HPC)) was 163 % of control.
